Test results taken from PubChem BioAssay AID1963849 (Molecular Pharmacology Branch, DTP, NCI, 2024).

System: 299254-011-R-J1-PDC complex spheroid viability
Test: Anticancer human tumor 299254-011-R-J1-PDC patient-derived melanoma cell line growth inhibition [POLQ]
Conditions: for IC50: curve of first compound; for viability, T/C: stronger effect = lower value
Summary of the method: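 PDC + HUVEC + MSC complex spheroids; POLQ inhibitors ± partner drugs; top conc. at/near clinical Cmax, else 10 microM (SN-38 1 microM), half-log dilutions; 37 degrees C, 5% CO2.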

[1] = second compound 0.0316 µM, first compound 0.0316 µM
[2] = second compound 0.0316 µM, first compound 0.1 µM
[3] = second compound 0.0316 µM, first compound 0.316 µM
[4] = second compound 0.0316 µM, first compound 1 µM
[5] = second compound 0.0316 µM, first compound 3.16 µM
[6] = second compound 0.0316 µM, first compound 10 µM
[7] = second compound 0.1 µM, first compound 0.0316 µM
[8] = second compound 0.1 µM, first compound 0.1 µM
[9] = second compound 0.1 µM, first compound 0.316 µM
[10] = second compound 0.1 µM, first compound 1 µM
[11] = second compound 0.1 µM, first compound 3.16 µM
[12] = second compound 0.1 µM, first compound 10 µM
[13] = second compound 0.316 µM, first compound 0.0316 µM
[14] = second compound 0.316 µM, first compound 0.1 µM
[15] = second compound 0.316 µM, first compound 0.316 µM
[16] = second compound 0.316 µM, first compound 1 µM
[17] = second compound 0.316 µM, first compound 3.16 µM
[18] = second compound 0.316 µM, first compound 10 µM
[19] = second compound 1 µM, first compound 0.0316 µM
[20] = second compound 1 µM, first compound 0.1 µM
[21] = second compound 1 µM, first compound 0.316 µM
[22] = second compound 1 µM, first compound 1 µM
[23] = second compound 1 µM, first compound 3.16 µM
[24] = second compound 1 µM, first compound 10 µM
[25] = second compound 3.16 µM, first compound 0.0316 µM
[26] = second compound 3.16 µM, first compound 0.1 µM
[27] = second compound 3.16 µM, first compound 0.316 µM
[28] = second compound 3.16 µM, first compound 1 µM
[29] = second compound 3.16 µM, first compound 3.16 µM
[30] = second compound 3.16 µM, first compound 10 µM
[31] = second compound 10 µM, first compound 0.0316 µM
[32] = second compound 10 µM, first compound 0.1 µM
[33] = second compound 10 µM, first compound 0.316 µM
[34] = second compound 10 µM, first compound 1 µM
[35] = second compound 10 µM, first compound 3.16 µM
[36] = second compound 10 µM, first compound 10 µM
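Further: spheroids exposed to drugs for one week before measurement.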
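Wherever viability, T/C is given: percent viability relative to DMSO vehicle control taken as 100%.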

SMILES: CC1COCCN1c1cc(C2(S(C)(=N)=O)CC2)nc(-c2ccnc3[nH]ccc23)n1 (centres undefined) + Cc1cccc(N(C)C(=O)C2C(O)CCN2c2nc(C)cc(C(F)(F)F)c2C#N)c1
- IC50 (second compound 0.0316 µM): 6320 nM
- IC50 (second compound 0.1 µM): 5320 nM
- IC50 (second compound 0.316 µM): 7000 nM
- IC50 (second compound 1 µM): 6250 nM
- IC50 (second compound 3.16 µM): 4220 nM
- IC50 (second compound 10 µM): 2670 nM
- viability, T/C [1]: 105%
- viability, T/C [2]: 99%
- viability, T/C [3]: 87.2%
- viability, T/C [4]: 79.6%
- viability, T/C [5]: 66.4%
- viability, T/C [6]: 39.4%
- viability, T/C [7]: 108%
- viability, T/C [8]: 103%
- viability, T/C [9]: 91.1%
- viability, T/C [10]: 80.1%
- viability, T/C [11]: 61%
- viability, T/C [12]: 36.7%
- viability, T/C [13]: 99.1%
- viability, T/C [14]: 97.4%
- viability, T/C [15]: 91.6%
- viability, T/C [16]: 96.6%
- viability, T/C [17]: 66%
- viability, T/C [18]: 42.8%
- viability, T/C [19]: 93%
- viability, T/C [20]: 92.5%
- viability, T/C [21]: 104%
- viability, T/C [22]: 94.3%
- viability, T/C [23]: 70.9%
- viability, T/C [24]: 35.6%
- viability, T/C [25]: 90.4%
- viability, T/C [26]: 92.7%
- viability, T/C [27]: 100%
- viability, T/C [28]: 92.3%
- viability, T/C [29]: 54.4%
- viability, T/C [30]: 36.8%
- viability, T/C [31]: 93%
- viability, T/C [32]: 92.7%
- viability, T/C [33]: 93.8%
- viability, T/C [34]: 63.7%
- viability, T/C [35]: 52.7%
- viability, T/C [36]: 37.9%

SMILES: Nc1ccn(C2OC(CO)C(O)C2(F)F)c(=O)n1 (centres undefined) + COC1C(OC(N)=O)C(O)C(Oc2ccc3c(O)c(NC(=O)c4ccc(O)c(CC=C(C)C)c4)c(=O)oc3c2C)OC1(C)C
- IC50 (second compound 0.0316 µM): 81.8 nM
- IC50 (second compound 0.1 µM): 76.7 nM
- IC50 (second compound 0.316 µM): 63.1 nM
- IC50 (second compound 1 µM): 79.6 nM
- IC50 (second compound 3.16 µM): < 31.6 nM
- IC50 (second compound 10 µM): 66.2 nM
- viability, T/C [1]: 62.8%
- viability, T/C [2]: 44.3%
- viability, T/C [3]: 41.2%
- viability, T/C [4]: 35.1%
- viability, T/C [5]: 46.8%
- viability, T/C [6]: 44.4%
- viability, T/C [7]: 60.1%
- viability, T/C [8]: 40.6%
- viability, T/C [9]: 52.4%
- viability, T/C [10]: 37.7%
- viability, T/C [11]: 35.6%
- viability, T/C [12]: 39.2%
- viability, T/C [13]: 64.7%
- viability, T/C [14]: 40.6%
- viability, T/C [15]: 36.6%
- viability, T/C [16]: 30.9%
- viability, T/C [17]: 44.7%
- viability, T/C [18]: 41.2%
- viability, T/C [19]: 71.6%
- viability, T/C [20]: 44.4%
- viability, T/C [21]: 46.6%
- viability, T/C [22]: 33.8%
- viability, T/C [23]: 48.9%
- viability, T/C [24]: 45.5%
- viability, T/C [25]: 57%
- viability, T/C [26]: 38.8%
- viability, T/C [27]: 35%
- viability, T/C [28]: 39.6%
- viability, T/C [29]: 31.3%
- viability, T/C [30]: 42.4%
- viability, T/C [31]: 61%
- viability, T/C [32]: 44.1%
- viability, T/C [33]: 39.1%
- viability, T/C [34]: 39.3%
- viability, T/C [35]: 48.9%
- viability, T/C [36]: 31.4%
